Data taken from US7750013B2, “N-oxides as prodrugs of piperazine and piperidine derivatives” (Solvay Pharmaceuticals, B.V., priority 2005, dated 2010).

How the values were obtained:
[1] = biological target: κ-opiate (Rattus norvegicus, UniProt P34975); test: In vitro receptor affinity, κ-opiate; format: binding
Description: (§1) The binding data collected in the table below (Example 5: pharmacological test results) were either obtained by CEREP (128, rue Danton, 92500 Rueil-Malmaison, France) or at Solvay Pharmaceuticals B.V. (C. J. van Houtenlaan 36, 1381 CP Weesp, The Netherlands), using well documented standard procedures. The affinities for dopamine-D2 and 5-HT1A receptors for instance, was measured as described by Creese I, Schneider R and Snyder S H, [^3H]-Spiroperidol labels dopamine receptors in rat pituitary and brain, Eur J Pharmacol […], 46: 377-381 and Gozlan H, El Mestikawy S, Pichat L, Glowinsky J and Hamon M, 1983, Identification of presynaptic serotonin autoreceptors using a new ligand ^3H-PAT, Nature 1983, 305: 140-142.

[2] = Plasma levels of SLV308 and its N-oxide after oral dosing; format: in vivo; details: after oral administration; rats
Source text: These findings were corroborated by measurements of plasma levels of SLV308 and its N-oxide after oral dosing with SLV308 and the N-oxide.

[3] = biological target: β1-adrenergic (Homo sapiens, UniProt P08588); test: In vitro receptor affinity, β1-adrenergic; format: binding
Description: as §1

[4] = biological target: 5-HT7 (Homo sapiens, UniProt P34969); test: In vitro receptor affinity, 5-HT7; format: binding
Description: as §1

[5] = tested on: receptors for which the parent compound showed a high affinity; test: In vitro screening of the N-oxide metabolite (receptor affinity overall); format: binding; details: affinity very low or below the detection limit
Source text: In drug development, metabolites are routinely investigated for activity, toxicity, etc. […] These findings confirmed that in this case one of the most common situations with an N-oxide had occurred: metabolic deactivation.
as §1

[6] = biological target: α2C-adrenergic (Homo sapiens, UniProt P18825); test: In vitro receptor affinity, α2C-adrenergic; format: binding
Description: as §1

[7] = biological target: 5-HT1B (Rattus norvegicus, UniProt P28564); test: In vitro receptor affinity, 5-HT1B; format: binding
Description: as §1

[8] = biological target: Dopamine-D2S (Homo sapiens, UniProt P14416); test: In vitro receptor affinity, Dopamine-D2S; format: binding
Description: as §1

[9] = biological target: 5-HT3 (Rattus norvegicus, UniProt P35563); test: In vitro receptor affinity, 5-HT3; format: binding
Description: as §1

[10] = biological target: T1, Human dopamine-D3 receptor (Homo sapiens, UniProt P35462); test: In vitro functional receptor activity; format: cell-based
T1 construct: expressed in transfected cells
T1 sequence (P35462 whole entry): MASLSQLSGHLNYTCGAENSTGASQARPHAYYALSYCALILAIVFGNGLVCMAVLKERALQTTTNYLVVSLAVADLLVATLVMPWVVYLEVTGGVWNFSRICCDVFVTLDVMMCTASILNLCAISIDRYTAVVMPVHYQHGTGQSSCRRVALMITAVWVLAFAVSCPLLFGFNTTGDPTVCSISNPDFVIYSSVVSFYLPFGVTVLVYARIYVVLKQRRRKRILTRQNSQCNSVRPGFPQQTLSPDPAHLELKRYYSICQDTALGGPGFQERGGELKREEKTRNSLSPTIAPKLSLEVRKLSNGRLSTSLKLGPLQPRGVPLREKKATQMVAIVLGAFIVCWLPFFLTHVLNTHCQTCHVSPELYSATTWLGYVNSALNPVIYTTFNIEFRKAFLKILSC

Chain of κ-opiate (P34975 whole entry): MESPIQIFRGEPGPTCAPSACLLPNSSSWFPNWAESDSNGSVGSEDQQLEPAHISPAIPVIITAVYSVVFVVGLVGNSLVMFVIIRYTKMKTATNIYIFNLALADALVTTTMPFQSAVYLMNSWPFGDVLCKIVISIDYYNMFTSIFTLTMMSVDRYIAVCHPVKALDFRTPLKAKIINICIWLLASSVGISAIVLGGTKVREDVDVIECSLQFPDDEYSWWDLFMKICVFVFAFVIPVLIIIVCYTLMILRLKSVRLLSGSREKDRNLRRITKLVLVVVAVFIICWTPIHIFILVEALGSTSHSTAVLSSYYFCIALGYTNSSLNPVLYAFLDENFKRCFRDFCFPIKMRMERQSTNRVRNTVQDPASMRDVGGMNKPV
Chain of Dopamine-D2S (P14416 1-414 isoform P14416-2): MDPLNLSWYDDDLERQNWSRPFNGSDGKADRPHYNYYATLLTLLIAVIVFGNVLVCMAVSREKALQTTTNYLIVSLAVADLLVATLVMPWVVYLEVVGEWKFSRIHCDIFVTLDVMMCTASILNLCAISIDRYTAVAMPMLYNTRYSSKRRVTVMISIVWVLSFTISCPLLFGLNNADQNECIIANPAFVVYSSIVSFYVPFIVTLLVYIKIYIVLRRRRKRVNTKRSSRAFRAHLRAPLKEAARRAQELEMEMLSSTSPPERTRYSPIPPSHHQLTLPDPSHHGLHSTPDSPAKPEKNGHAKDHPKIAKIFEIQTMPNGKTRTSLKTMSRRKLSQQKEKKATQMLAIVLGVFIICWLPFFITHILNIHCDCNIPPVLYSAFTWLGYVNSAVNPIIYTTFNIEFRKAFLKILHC
Chain of 5-HT7 (P34969 whole entry): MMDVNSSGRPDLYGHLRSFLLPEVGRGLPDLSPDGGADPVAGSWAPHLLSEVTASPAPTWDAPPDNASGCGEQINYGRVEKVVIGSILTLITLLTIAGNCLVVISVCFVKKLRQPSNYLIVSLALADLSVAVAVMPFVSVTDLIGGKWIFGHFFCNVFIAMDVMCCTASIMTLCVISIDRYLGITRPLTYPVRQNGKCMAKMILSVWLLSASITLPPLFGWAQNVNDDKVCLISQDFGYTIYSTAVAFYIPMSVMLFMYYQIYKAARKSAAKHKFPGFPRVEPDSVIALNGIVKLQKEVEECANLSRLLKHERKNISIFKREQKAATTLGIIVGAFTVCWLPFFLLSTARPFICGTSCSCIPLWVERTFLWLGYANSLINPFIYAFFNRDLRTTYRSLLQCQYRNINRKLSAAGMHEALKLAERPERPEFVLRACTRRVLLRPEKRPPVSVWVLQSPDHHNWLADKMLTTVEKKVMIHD
Chain of 5-HT3 (P35563 24-483): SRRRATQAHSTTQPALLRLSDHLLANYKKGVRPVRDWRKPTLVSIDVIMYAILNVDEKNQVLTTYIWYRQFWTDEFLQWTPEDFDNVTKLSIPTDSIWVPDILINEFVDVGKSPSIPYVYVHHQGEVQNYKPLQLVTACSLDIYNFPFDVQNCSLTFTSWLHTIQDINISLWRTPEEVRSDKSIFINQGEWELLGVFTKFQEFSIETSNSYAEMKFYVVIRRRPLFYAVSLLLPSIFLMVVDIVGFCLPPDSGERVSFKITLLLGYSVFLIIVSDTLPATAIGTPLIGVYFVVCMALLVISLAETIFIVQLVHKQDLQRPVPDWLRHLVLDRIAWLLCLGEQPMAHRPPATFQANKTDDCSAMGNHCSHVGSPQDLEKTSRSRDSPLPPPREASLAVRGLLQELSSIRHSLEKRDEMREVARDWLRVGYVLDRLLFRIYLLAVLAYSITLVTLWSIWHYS
Chain of 5-HT1B (P28564 whole entry): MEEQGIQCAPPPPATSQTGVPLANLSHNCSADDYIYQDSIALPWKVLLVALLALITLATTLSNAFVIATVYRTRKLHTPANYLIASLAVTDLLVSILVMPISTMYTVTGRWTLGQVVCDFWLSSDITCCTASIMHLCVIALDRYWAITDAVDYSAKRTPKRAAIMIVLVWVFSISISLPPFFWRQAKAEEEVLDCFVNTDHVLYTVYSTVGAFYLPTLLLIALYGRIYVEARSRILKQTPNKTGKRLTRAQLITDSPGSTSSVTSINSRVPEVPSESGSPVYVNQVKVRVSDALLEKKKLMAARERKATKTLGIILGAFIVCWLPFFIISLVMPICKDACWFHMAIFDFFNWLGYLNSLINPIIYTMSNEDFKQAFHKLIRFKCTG
Chain of α2C-adrenergic (P18825 whole entry): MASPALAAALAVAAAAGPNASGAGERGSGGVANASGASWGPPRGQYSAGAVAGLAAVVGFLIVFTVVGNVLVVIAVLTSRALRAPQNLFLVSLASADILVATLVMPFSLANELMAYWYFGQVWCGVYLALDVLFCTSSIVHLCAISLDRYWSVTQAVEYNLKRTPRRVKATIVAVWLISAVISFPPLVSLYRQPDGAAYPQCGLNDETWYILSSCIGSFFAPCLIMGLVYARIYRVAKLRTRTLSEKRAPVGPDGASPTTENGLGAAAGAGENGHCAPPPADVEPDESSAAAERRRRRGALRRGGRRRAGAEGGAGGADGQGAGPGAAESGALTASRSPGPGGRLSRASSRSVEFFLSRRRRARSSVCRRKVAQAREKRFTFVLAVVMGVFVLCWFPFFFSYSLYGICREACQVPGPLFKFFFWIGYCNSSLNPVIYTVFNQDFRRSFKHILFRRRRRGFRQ
Chain of β1-adrenergic (P08588 whole entry): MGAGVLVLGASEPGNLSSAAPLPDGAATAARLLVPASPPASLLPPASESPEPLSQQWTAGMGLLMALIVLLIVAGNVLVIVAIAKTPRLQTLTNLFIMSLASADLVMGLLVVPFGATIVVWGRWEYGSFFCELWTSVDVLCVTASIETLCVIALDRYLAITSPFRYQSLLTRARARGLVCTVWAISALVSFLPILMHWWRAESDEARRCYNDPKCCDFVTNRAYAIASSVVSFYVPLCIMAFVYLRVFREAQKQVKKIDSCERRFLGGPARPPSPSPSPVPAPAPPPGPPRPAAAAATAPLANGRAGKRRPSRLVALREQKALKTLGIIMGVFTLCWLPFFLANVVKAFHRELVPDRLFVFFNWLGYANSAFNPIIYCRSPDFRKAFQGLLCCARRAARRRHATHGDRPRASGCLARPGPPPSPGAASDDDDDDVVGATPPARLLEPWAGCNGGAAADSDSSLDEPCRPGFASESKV

## C[N+]1([O-])CCN(c2cccc3[nH]c(=O)oc23)CC1 [N-oxide of SLV308, N-Oxide of SLV308]
other
  melting point: 242 to 243 °C
[1]
  Ki: > 1000 nM
[2]
  Plasma levels of the N-oxide relative to SLV308 (in words): approximately equal
[3]
  Ki: > 1000 nM
[4]
  Ki: > 1000 nM
[5]
  In vitro activity (in words): virtually inactive
[6]
  Ki: 400 nM
[7]
  Ki: > 1000 nM
[8]
  Ki: > 1000 nM
[9]
  Ki: > 1000 nM
[10]
  EC50: 50.1 nM
  Human dopamine-D3 receptor intrinsic activity (α): 0.60
  Kb: > 10000 nM
